The values below are quoted from earlier work in US20250387497A1, “MULTIVALENT MULTISPECIFIC CONJUGATES AND RELATED COMPOSITIONS AND METHODS OF USE” (Purdue Research Foundation, priority 2022, published 2025).

pKd: −log10 of the molar value.

One data set addresses EGFR (Homo sapiens, UniProt P00533). Particulars: read-out: binding affinity for EGFR.
In the next data set the target is Her2 (Homo sapiens, UniProt P04626). The note with it: read-out: binding affinity for Her2.

Regarding YHWYGYTPQNVI [E], the pKd on EGFR is 3.34.

For FCGDGFYACYMDV [H], the pKd on Her2 was 6.52.
